Experimental data from patent publication US20100173298A1, “HCV GENE” (priority 2007, published 2010).

Assays:
[1] = test system: pTPF1/4B full-length HCV RNA replicon; assay: Inhibition of replication of full-length HCV RNA replicon by interferon (core antigen in Huh7 cells); assay type: cell-based, hepatitis C virus (genotype 1b); conditions: pTPF1/4B RNA in Huh7 cells; interferon 0.1 to 300 IU/ml for 24 hours; core antigen in cells vs no-interferon control
From the text: (§1) Evaluation of an inhibitory action of interferon on the replication of the HCV RNA replicon was attempted using the full-length HCV RNA replicon. The full-length HCV RNA used for the evaluation of the inhibitory action of interferon was pTPF1/4B which was replicable with high efficiency in Huh7 cells in Example 4 and a chimera between AHC1 obtained in Example 6 and pTPF1/4B was also used. As for a chimera vector, the full-length HCV DNA pTPF1 was digested with restriction enzymes, Age I and Bsr GI and a fragment obtained by digesting AHC1 with restriction enzymes, Age I and Bsr GI were ligated to and inserted into the region of the cleavage of pTPF1, thereby preparing HCV DNA pTPF1/AHC1_AgeBsr in which the structural protein region of AHC1 was inserted. […]
(§2) At twenty four hours after the culture was started, the medium was replaced with culture medium dissolving various concentrations (from 0.1 IU/ml to 300 IU/ml) of interferon. […] Cell pellet was dissolved in 50 μl of RIPA buffer (20 mM Tris-HCl (pH 7.5), 150 mM NaCl, 1 mM EDTA, 1% NP40, 0.1% Deoxycholate, 0.1% SDS, Complete protease inhibitor cocktail (Roche diagnostics corporation) and supernatant was collected by centrifugation at 10 k rpm for 5 minutes. The supernatant in an amount of 5 μl was measured using a kit for HCV core antigen (FUJIREBIO, Lumipulse).

[2] = test system: pTPF1/AHC1_AgeBsr full-length HCV RNA replicon; assay: as above; assay type: cell-based, hepatitis C virus (genotype 1b); conditions: interferon 0.1 to 300 IU/ml for 24 hours, core antigen in cells vs no-interferon control
From the text: as §1, §2

Substance: interferon
- Inhibitory activity for replication of HCV RNA replicon: IC50 [1]: >300 IU/m
- Inhibitory activity for replication of HCV RNA replicon: IC50 [2]: 33 IU/m
